# Laboratory results as given in patent US5516777A, “Condensed pyrazole derivatives, and androgen inhibitor” (Otsuka Pharmaceutical Co., Ltd., priority 1992, dated 1996).
# Experiments:
# [1] = Oral absorption (blood level after oral administration); format: in vivo; settings: Wistar male rat, 30 mg/ml/kg, serum
# Description: After administration, the rat is fixed on a plate with nails and strings. […] The serum was obtained by centrifuging with a blood serum separating tube ([…] tube). To 100 μl of the serum thus obtained was added 300 μl of methanol, and the mixture was centrifuged. Next, 50 μl of the supernatant was applied to a high-performance liquid chromatography, and the blood level of the compound was measured. Conditions of the high-performance liquid chromatography are as follows: Column: […] 300, 4.6 mm diameter and 150 mm length Eluent: 48% CH3 CN-0.01% TFA Flow rate: 1 ml/minute Detection: UV 290 nm Sensitivity: 0.01 AUFS Colume temperature: 50° C. As Comparative Example 10, the compound expressed in the following chemical formula disclosed in U.S. Pat.
# [2] = biological target: T1, rat prostate androgen receptor (Rattus norvegicus, UniProt P15207); settings: 1 nM ^3 H-mibolerone, 20 hours at 0° C., rat ventral prostate cytosol; read-out: Inhibitory activity on mibolerone specific binding [IC50 (M)]
# T1 sequence (P15207 1-902): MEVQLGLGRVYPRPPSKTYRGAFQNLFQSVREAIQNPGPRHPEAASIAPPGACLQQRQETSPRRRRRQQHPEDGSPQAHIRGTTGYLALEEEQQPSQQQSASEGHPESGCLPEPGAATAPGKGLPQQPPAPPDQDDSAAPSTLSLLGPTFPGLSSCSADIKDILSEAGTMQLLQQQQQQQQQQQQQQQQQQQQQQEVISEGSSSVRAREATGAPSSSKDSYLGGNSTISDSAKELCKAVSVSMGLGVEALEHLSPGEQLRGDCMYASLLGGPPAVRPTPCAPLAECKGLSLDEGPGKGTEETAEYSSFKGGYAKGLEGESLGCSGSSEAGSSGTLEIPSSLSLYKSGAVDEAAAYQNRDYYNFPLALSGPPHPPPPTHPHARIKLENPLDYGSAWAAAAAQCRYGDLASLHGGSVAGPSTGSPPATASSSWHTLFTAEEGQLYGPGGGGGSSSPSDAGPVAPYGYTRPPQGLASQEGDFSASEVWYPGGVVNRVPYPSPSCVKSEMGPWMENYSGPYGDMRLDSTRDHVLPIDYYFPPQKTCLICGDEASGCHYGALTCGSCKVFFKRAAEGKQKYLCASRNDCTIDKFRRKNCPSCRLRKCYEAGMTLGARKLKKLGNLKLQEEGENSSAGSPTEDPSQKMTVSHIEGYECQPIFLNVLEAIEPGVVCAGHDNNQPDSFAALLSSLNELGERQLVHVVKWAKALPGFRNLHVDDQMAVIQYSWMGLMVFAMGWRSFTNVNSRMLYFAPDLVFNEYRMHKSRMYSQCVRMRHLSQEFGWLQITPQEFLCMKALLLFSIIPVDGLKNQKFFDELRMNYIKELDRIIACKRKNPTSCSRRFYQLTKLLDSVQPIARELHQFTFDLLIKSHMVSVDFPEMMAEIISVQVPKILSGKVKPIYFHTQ
# Description: Assay of inhibitory activity to binding of ^3 H-mibolerone on rat prostate androgen receptor
# (1) Preparation of Cytosol from Rat Prostate
# The rats were killed 24 hours after castration, and the ventral prostate glands were removed, and was gently homogenized, with three volume of buffer solution A (1.5 mM EDTA, 2 mM dithiothreitol, 10 mM molybdate sodium, 10% by volume of glycerol, 10 mM NaF, 25 mM phosphate sodium, pH 7.2) on ice-water bath, in Polytron, and Potter type homogenizer. The obtained homogenate was filtrated through double gauze, and centrifuged at 105,000×g for 60 minutes at 4° C., and the supernatant was obtained as cytoplasm fraction.
# (2) Measurement of Specific binding of ^3 H-mibolerone to Prostate Cytoplasm Androgen Receptor
# To the cytoplasm fraction obtained in (1) was added ^3 H-mibolerone (87.0 Ci/millimol), so that a final concentration is adjusted to 1 nM, and at the same time, in order to block binding of ^3 H-mibolerone to progestin receptor, triamsinolone acetonide was added to a final concentration of 5 μM, and the final volume was adjusted to 0.4 ml with buffer solution A, and the reaction mixture was incubated for 20 hours at 0° C. After incubation, 0.5 ml of 60% hydroxylapatite slurry (washed and equilibrate with a buffer solution B: 10 mM NaH2 PO4, 20 mM tris-hydrochloric acid, pH 7.2) was added, and incubated for 10 minutes at 0° C., the solution was transferred onto a glass fiber filter, and washed five times with 5 ml portions of buffer solution B containing 0.1% (weight/volume) of Triton X-100, to remove free ^3 H-mibolerone. This glass fiber was transferred into vial, and 10 ml of aquasol- 2 was added, and the radioactivity was measured, and the total binding amount of ^3 H-mibolerone on prostate cytoplasm androgen receptor was determined.
# The nonspecific binding amount was determined similarly by adding an unlabeled 5α-DHT in the reaction solution to a final concentration of 1 μM. The difference between the total binding amount and nonspecific binding amount was determined as the specific binding amount on the androgen receptor.
# (3) Inhibitory Activity of Sample Compounds on ^3 H-mibolerone Specific Binding
# The various concentrations of compounds obtained in the experiments were added simultaneously with ^3 H-mibolerone to incubate same as in (2), and the specific binding amount of ^3 H-mibolerone on androgen receptor was determined. Comparing this value with the value obtained in (2), the IC50 value of inhibitory activity of the compounds on ^3 H-mibolerone specific binding was determined.
# [3] = In vitro drug metabolism in rat liver extract; format: in vitro ADME, male Wistar rats; settings: pH 7.4, 37° C.; for remaining at 5 min / remaining at 0.25 h / remaining at 0.5 h / remaining at 1 h: rat liver extract; for remaining at 5 min: read-out: Residual amount of test compound, 5 min.; for remaining at 0.25 h: 15 min., read-out: Residual amount of test compound, 15 min.; for remaining at 0.5 h: 30 min., read-out: Residual amount of test compound, 30 min.; for remaining at 1 h: 60 min., read-out: Residual amount of test compound, 60 min.; for half-life: half-life in the rat liver extract, read-out: Half-time period
# Description: 2. In vitro drug metabolism in rat liver extract
# The resistance of the compound against metabolic degradation by rat liver extract was investigated.
# The male Wistar rats (weighing about 200 g) were used after fasting for 24 hours. The rat was sacrificed under ether anesthesia, and the livers were removed and were placed onto the ice.
# The liver was minced with scissors under ice-cooling, and homogenized in the presence of 4 volumes of 1.15% KCl-0.1M phosphate buffer (pH 7.4) with a Potter type homogenizer. The homogenates were centrifuged at 9,000×g for 10 minutes at 4° C., and the supernatant filtered through the cheese-cloth was used as an enzyme solution.
# The constitution of the reaction mixture was shown in below. 0.1M Buffer was sufficiently bubbled in 95% O2 -5% CO2 gas before use.
# Glucose 6-phosphate (60.8 mg.ml)
# Nicotineamide (9.16 mg/ml)
# The tested samples were dissolved in dimethyl sulfoxide. MgCl2 ·6H2 O was dissolved in a distilled water, and all other reagents were dissolved in 0.1M phosphate buffer. The reaction was initiated by adding enzyme solution, and shaked at 37° C. with 120 cycles/minutes in Spitz test tubes with stoppers. The reaction was stopped by adding methanol after 5, 15, 30 and 60 minutes.
# After termination of the reaction, samples were mixed by using of a Vortex mixer, and centrifuged at 3,000 rpm for 10 minutes. The supernatant was applied to a high-performance liquid chromatography of which conditons are shown in below. A residual amount of the mother compound was determined at certain time intervals, whererby half-life of the compound in the rat liver extract was calculated.
# Column: Chemcosorb 5C18-300 Å 4.6 mm diameter and 150 mm length
# Colume temperature: 50° C.
concentration at 4 h ([1]; 30 mg/kg) [µg/mL],concentration at 8 h ([1]; 30 mg/kg) [µg/mL],"Blood Level, 20 minutes ([1]; 20 minutes) [µg/mL]","Blood Level, 1 hours ([1]; 1 hour) [µg/mL]","Blood Level, 2 hours ([1]; 2 hours) [µg/mL]",IC50 [2] [M],remaining at 5 min [3] [%],remaining at 0.25 h [3] [%],remaining at 0.5 h [3] [%],remaining at 1 h [3] [%],half-life [3] [h],"concentration at 20 min ([1]; 30 mg/kg, 20 minutes) [µg/mL]","concentration at 1 h ([1]; 30 mg/kg, 1 hour) [µg/mL]","concentration at 2 h ([1]; 30 mg/kg, 2 hours) [µg/mL]",Structure (SMILES)
0.112,0.031,0.000,0.000,0.000,–,–,–,–,–,–,–,–,–,"CCc1ccccc1NS(=O)(=O)c1ccc(-c2cnn3c(O)ncnc23)cc1 [Comparative Example 10, reference compound]"
1.42,0.731,–,–,–,2.8e-07,92.2,62.4,60.2,42.9,0.75,1.59,2.69,1.25,"Oc1ncnc2c(-c3ccc(Cc4ccccc4)cc3)cnn12 [Example 1, 8-(4-benzylphenyl)-4-hydroxypyrazolo[1,5-a]-1,3,5-triazine]"
–,–,–,–,–,1.8e-08,98.3,98.8,91.5,87.9,> 1,–,–,–,COc1cccc(Cc2ccc(-c3cnn4c(O)ncnc34)cc2OC)c1 [Example 11]
–,–,–,–,–,2.3e-08,93,91.8,97.4,90.8,> 1,–,–,–,COc1cc(-c2cnn3c(O)ncnc23)ccc1Cc1cccc(C)c1 [Example 12]
–,–,–,–,–,1.2e-07,106,100,97.6,81.4,> 1,–,–,–,"Cc1cccc(Cc2ccc(-c3cnn4c(O)ncnc34)cc2)c1 [Example 13, 4-hydroxy-8-[4-(3-methylphenylmethyl)phenyl]pyrazolo[1,5-a]-1,3,5-triazine]"
–,–,–,–,–,6.4e-07,82.9,77.8,82.5,55.5,> 1,–,–,–,"Cc1ccccc1Cc1ccc(-c2cnn3c(O)ncnc23)cc1 [Example 14, 4-hydroxy-8-[4-(2-methylphenylmethyl)phenyl]pyrazolo[1,5-a]-1,3,5-triazine]"
–,–,–,–,–,9.9e-08,86.1,68.9,64.7,51.9,> 1,–,–,–,"COc1cccc(Cc2ccc(-c3cnn4c(O)ncnc34)cc2)c1 [Example 15, 4-hydroxy-8-[4-(3-methoxyphenylmethyl)phenyl]pyrazolo[1,5-a]-1,3,5-triazine]"
–,–,–,–,–,3.9e-08,94.4,84.7,68.3,42.4,0.867,–,–,–,"CC(c1ccccc1)c1ccc(-c2cnn3c(O)ncnc23)cc1 (stereo not drawn) [Example 19, 4-hydroxy-8-[4-(α-methylbenzyl)phenyl]pyrazolo[1,5-a]-1,3,5-triazine]"
–,–,–,–,–,1.2e-07,88.5,74.3,66,53.4,> 1,–,–,–,"COc1cccc(Cc2ccc(-c3cnn4c(O)ccnc34)cc2)c1 [Example 28, 7-hydroxy-3-[4-(3-methoxyphenylmethyl)phenyl]pyrazolo[1,5-a]pyrimidine]"
